Measured values: the supplement of paper PMC10307832

Key:
Assay in all cases: relative viability (nuclei count vs DMSO), 5 days (fraction); higher = more cells survive
Selisistat + Decitabine = compound: C1CC(C2=C(C1)C3=C(N2)C=CC(=C3)Cl)C(=O)N [Selisistat] + Nc1ncn([C@H]2C[C@H](O)[C@@H](CO)O2)c(=O)n1 [Decitabine] (partner 2 µM)
Outline: (§1)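 Lung cancer cell lines, seeded in 1536-well plates, were treated the following day by pin tool with a single drug or with five library-drug doses (not always all listed) in √10 steps on top of a fixed anchor-drug dose. Cells were fixed and nuclei stained in one step after 5 days, and nuclei were counted. Relative viability is the nuclei count for treated wells divided by that for vehicle wells, reported as medians of duplicate plates.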

Selisistat + Phenformin = compound: C1CC(C2=C(C1)C3=C(N2)C=CC(=C3)Cl)C(=O)N [Selisistat] + N=C(N)NC(=N)NCCc1ccccc1 [Phenformin] (partner 250 µM)
Outline: as §1

Selisistat + Trametinib = compound: C1CC(C2=C(C1)C3=C(N2)C=CC(=C3)Cl)C(=O)N [Selisistat] + CC(=O)Nc1cccc(-n2c(=O)n(C3CC3)c(=O)c3c(Nc4ccc(I)cc4F)n(C)c(=O)c(C)c32)c1 [Trametinib] (partner 0.02 µM)
Outline: as §1

Serdemetan + Navitoclax = compound: c1ccc2c(CCNc3ccc(Nc4ccncc4)cc3)c[nH]c2c1 [Serdemetan] + CC1(C)CCC(c2ccc(Cl)cc2)=C(CN2CCN(c3ccc(C(=O)NS(=O)(=O)c4ccc(N[C@H](CCN5CCOCC5)CSc5ccccc5)c(S(=O)(=O)C(F)(F)F)c4)cc3)CC2)C1 [Navitoclax] (partner 0.5 µM)
Outline: as §1

For NCI-H2170, the relative viability (Selisistat + Decitabine; first compound 0.4 µM) was 0.481, the relative viability (Selisistat + Decitabine; first compound 1.265 µM) was 0.474 and the relative viability (Selisistat + Decitabine; first compound 4 µM) was 0.458. The relative viability (Selisistat + Decitabine; first compound 12.65 µM) was 0.53, the relative viability (Selisistat + Decitabine; first compound 40 µM) was 0.47 and the relative viability (Selisistat + Phenformin; first compound 0.4 µM) was 0.413. The relative viability (Selisistat + Phenformin; first compound 1.265 µM) was 0.417, the relative viability (Selisistat + Phenformin; first compound 4 µM) was 0.4 and the relative viability (Selisistat + Phenformin; first compound 12.65 µM) was 0.432. For the same cell line, the relative viability (Selisistat + Phenformin; first compound 40 µM) was 0.458, the relative viability (Selisistat + Trametinib; first compound 0.4 µM) was 1.07 and the relative viability (Selisistat + Trametinib; first compound 1.265 µM) was 0.939. It also gave a relative viability (Selisistat + Trametinib; first compound 4 µM) of 0.85, a relative viability (Selisistat + Trametinib; first compound 12.65 µM) of 0.919 and a relative viability (Selisistat + Trametinib; first compound 40 µM) of 0.973. For the same cell line, the relative viability (Serdemetan + Navitoclax; first compound 0.04 µM) was 0.591, the relative viability (Serdemetan + Navitoclax; first compound 0.1265 µM) was 0.705 and the relative viability (Serdemetan + Navitoclax; first compound 0.4 µM) was 0.52. For the same cell line, the relative viability (Serdemetan + Navitoclax; first compound 1.265 µM) was 0.554 and the relative viability (Serdemetan + Navitoclax; first compound 4 µM) was 0.601.
NCI-H1299 showed a relative viability (Serdemetan + Navitoclax; first compound 0.04 µM) of 1.02, a relative viability (Serdemetan + Navitoclax; first compound 0.1265 µM) of 1.03 and a relative viability (Serdemetan + Navitoclax; first compound 0.4 µM) of 1.02. It also gave a relative viability (Serdemetan + Navitoclax; first compound 1.265 µM) of 0.942 and a relative viability (Serdemetan + Navitoclax; first compound 4 µM) of 0.835.
Work on EBC-1 yielded a relative viability (Serdemetan + Navitoclax; first compound 0.04 µM) of 0.553, a relative viability (Serdemetan + Navitoclax; first compound 0.1265 µM) of 0.47 and a relative viability (Serdemetan + Navitoclax; first compound 0.4 µM) of 0.41. The relative viability (Serdemetan + Navitoclax; first compound 1.265 µM) was 0.424 and the relative viability (Serdemetan + Navitoclax; first compound 4 µM) was 0.341.
NCI-H2342 was tested, and the relative viability (Selisistat + Decitabine; first compound 0.4 µM) was 0.734, the relative viability (Selisistat + Decitabine; first compound 1.265 µM) was 0.772 and the relative viability (Selisistat + Decitabine; first compound 4 µM) was 0.689. For the same cell line, the relative viability (Selisistat + Decitabine; first compound 12.65 µM) was 0.704, the relative viability (Selisistat + Decitabine; first compound 40 µM) was 0.874 and the relative viability (Selisistat + Phenformin; first compound 0.4 µM) was 0.562. For the same cell line, the relative viability (Selisistat + Phenformin; first compound 1.265 µM) was 0.54, the relative viability (Selisistat + Phenformin; first compound 4 µM) was 0.504 and the relative viability (Selisistat + Phenformin; first compound 12.65 µM) was 0.601. The relative viability (Selisistat + Phenformin; first compound 40 µM) was 0.61, the relative viability (Selisistat + Trametinib; first compound 0.4 µM) was 0.931 and the relative viability (Selisistat + Trametinib; first compound 1.265 µM) was 0.826. For the same cell line, the relative viability (Selisistat + Trametinib; first compound 4 µM) was 0.801, the relative viability (Selisistat + Trametinib; first compound 12.65 µM) was 0.736 and the relative viability (Selisistat + Trametinib; first compound 40 µM) was 0.988.
NCI-H650 was tested, and the relative viability (Selisistat + Decitabine; first compound 0.4 µM) was 0.407, the relative viability (Selisistat + Decitabine; first compound 1.265 µM) was 0.293 and the relative viability (Selisistat + Decitabine; first compound 4 µM) was 0.286. The relative viability (Selisistat + Decitabine; first compound 12.65 µM) was 0.324, the relative viability (Selisistat + Decitabine; first compound 40 µM) was 0.33 and the relative viability (Selisistat + Phenformin; first compound 0.4 µM) was 0.499. For the same cell line, the relative viability (Selisistat + Phenformin; first compound 1.265 µM) was 0.432, the relative viability (Selisistat + Phenformin; first compound 4 µM) was 0.441 and the relative viability (Selisistat + Phenformin; first compound 12.65 µM) was 0.432. It also gave a relative viability (Selisistat + Phenformin; first compound 40 µM) of 0.485, a relative viability (Selisistat + Trametinib; first compound 0.4 µM) of 0.978 and a relative viability (Selisistat + Trametinib; first compound 1.265 µM) of 1.01. The relative viability (Selisistat + Trametinib; first compound 4 µM) was 0.967, the relative viability (Selisistat + Trametinib; first compound 12.65 µM) was 0.909 and the relative viability (Selisistat + Trametinib; first compound 40 µM) was 1.01.
Cell Line A549 has a relative viability (Selisistat + Decitabine; first compound 0.4 µM) of 0.257, a relative viability (Selisistat + Decitabine; first compound 1.265 µM) of 0.209 and a relative viability (Selisistat + Decitabine; first compound 4 µM) of 0.232. For the same cell line, the relative viability (Selisistat + Decitabine; first compound 40 µM) was 0.393, the relative viability (Selisistat + Phenformin; first compound 0.4 µM) was 0.192 and the relative viability (Selisistat + Phenformin; first compound 1.265 µM) was 0.17. For the same cell line, the relative viability (Selisistat + Phenformin; first compound 12.65 µM) was 0.123, the relative viability (Selisistat + Phenformin; first compound 40 µM) was 0.145 and the relative viability (Serdemetan + Navitoclax; first compound 0.04 µM) was 1.2. The relative viability (Serdemetan + Navitoclax; first compound 0.1265 µM) was 1.15, the relative viability (Serdemetan + Navitoclax; first compound 0.4 µM) was 1.19 and the relative viability (Serdemetan + Navitoclax; first compound 1.265 µM) was 0.598. The relative viability (Serdemetan + Navitoclax; first compound 4 µM) was 0.208.
For NCI-H358, the relative viability (Selisistat + Decitabine; first compound 0.4 µM) was 0.248, the relative viability (Selisistat + Decitabine; first compound 1.265 µM) was 0.226 and the relative viability (Selisistat + Decitabine; first compound 4 µM) was 0.195. It also gave a relative viability (Selisistat + Decitabine; first compound 12.65 µM) of 0.212, a relative viability (Selisistat + Decitabine; first compound 40 µM) of 0.218 and a relative viability (Selisistat + Phenformin; first compound 0.4 µM) of 0.358. The relative viability (Selisistat + Phenformin; first compound 1.265 µM) was 0.281, the relative viability (Selisistat + Phenformin; first compound 4 µM) was 0.186 and the relative viability (Selisistat + Phenformin; first compound 12.65 µM) was 0.332. It also gave a relative viability (Selisistat + Phenformin; first compound 40 µM) of 0.412, a relative viability (Selisistat + Trametinib; first compound 0.4 µM) of 0.146 and a relative viability (Selisistat + Trametinib; first compound 1.265 µM) of 0.16. The relative viability (Selisistat + Trametinib; first compound 4 µM) was 0.122, the relative viability (Selisistat + Trametinib; first compound 12.65 µM) was 0.129 and the relative viability (Selisistat + Trametinib; first compound 40 µM) was 0.122.
In the case of NCI-H1563, the relative viability (Selisistat + Phenformin; first compound 0.4 µM) is reported as 0.662, the relative viability (Selisistat + Phenformin; first compound 1.265 µM) is reported as 0.658 and the relative viability (Selisistat + Phenformin; first compound 4 µM) is reported as 0.63. It also gave a relative viability (Selisistat + Phenformin; first compound 12.65 µM) of 0.638 and a relative viability (Selisistat + Phenformin; first compound 40 µM) of 0.585.
In the case of SW 900, the relative viability (Selisistat + Decitabine; first compound 0.4 µM) is reported as 0.446, the relative viability (Selisistat + Decitabine; first compound 1.265 µM) is reported as 0.401 and the relative viability (Selisistat + Decitabine; first compound 4 µM) is reported as 0.42. The relative viability (Selisistat + Decitabine; first compound 12.65 µM) was 0.517, the relative viability (Selisistat + Decitabine; first compound 40 µM) was 0.5 and the relative viability (Selisistat + Phenformin; first compound 0.4 µM) was 0.632. It also gave a relative viability (Selisistat + Phenformin; first compound 1.265 µM) of 0.621, a relative viability (Selisistat + Phenformin; first compound 4 µM) of 0.468 and a relative viability (Selisistat + Phenformin; first compound 12.65 µM) of 0.484. The relative viability (Selisistat + Phenformin; first compound 40 µM) was 0.641, the relative viability (Selisistat + Trametinib; first compound 0.4 µM) was 1.03 and the relative viability (Selisistat + Trametinib; first compound 1.265 µM) was 0.87. For the same cell line, the relative viability (Selisistat + Trametinib; first compound 4 µM) was 0.78, the relative viability (Selisistat + Trametinib; first compound 12.65 µM) was 0.995 and the relative viability (Selisistat + Trametinib; first compound 40 µM) was 0.78.
In the case of IA-LM, the relative viability (Serdemetan + Navitoclax; first compound 0.04 µM) is reported as 0.822, the relative viability (Serdemetan + Navitoclax; first compound 0.1265 µM) is reported as 0.648 and the relative viability (Serdemetan + Navitoclax; first compound 0.4 µM) is reported as 0.692. The relative viability (Serdemetan + Navitoclax; first compound 1.265 µM) was 0.341 and the relative viability (Serdemetan + Navitoclax; first compound 4 µM) was 0.239.
NCI-H1703 was tested, and the relative viability (Serdemetan + Navitoclax; first compound 0.04 µM) was 1.05, the relative viability (Serdemetan + Navitoclax; first compound 0.1265 µM) was 1.24 and the relative viability (Serdemetan + Navitoclax; first compound 0.4 µM) was 1.17. The relative viability (Serdemetan + Navitoclax; first compound 1.265 µM) was 0.958 and the relative viability (Serdemetan + Navitoclax; first compound 4 µM) was 0.951.
With LCLC-103H the relative viability (Selisistat + Decitabine; first compound 0.4 µM) was 0.782, the relative viability (Selisistat + Decitabine; first compound 1.265 µM) was 0.77 and the relative viability (Selisistat + Decitabine; first compound 4 µM) was 0.7. For the same cell line, the relative viability (Selisistat + Decitabine; first compound 12.65 µM) was 0.729, the relative viability (Selisistat + Decitabine; first compound 40 µM) was 0.75 and the relative viability (Selisistat + Phenformin; first compound 0.4 µM) was 0.339. The relative viability (Selisistat + Phenformin; first compound 1.265 µM) was 0.338, the relative viability (Selisistat + Phenformin; first compound 4 µM) was 0.334 and the relative viability (Selisistat + Phenformin; first compound 12.65 µM) was 0.351. The relative viability (Selisistat + Phenformin; first compound 40 µM) was 0.355, the relative viability (Selisistat + Trametinib; first compound 0.4 µM) was 0.682 and the relative viability (Selisistat + Trametinib; first compound 1.265 µM) was 0.731. It also gave a relative viability (Selisistat + Trametinib; first compound 4 µM) of 0.75, a relative viability (Selisistat + Trametinib; first compound 12.65 µM) of 0.651 and a relative viability (Selisistat + Trametinib; first compound 40 µM) of 0.711.
Cell Line NCI-H1648 has a relative viability (Selisistat + Decitabine; first compound 0.4 µM) of 0.477, a relative viability (Selisistat + Decitabine; first compound 1.265 µM) of 0.45 and a relative viability (Selisistat + Decitabine; first compound 12.65 µM) of 0.406. The relative viability (Selisistat + Decitabine; first compound 40 µM) was 0.551, the relative viability (Selisistat + Trametinib; first compound 0.4 µM) was 0.448 and the relative viability (Selisistat + Trametinib; first compound 1.265 µM) was 0.399. The relative viability (Selisistat + Trametinib; first compound 12.65 µM) was 0.453 and the relative viability (Selisistat + Trametinib; first compound 40 µM) was 0.431.
